Test system: HepG2 cells
Assay: MTS assay for cell viability / cytotoxicity in HepG2 cells
Format: cell-based
Conditions: Homo sapiens; HepG2 cells after 48 h, without thermal activation; read-out: IC50 μg PTX/ml
Procedure: HepG2 liver cancer cell line and J774 murine macrophage cells (provided by Prof. Colby Shad Thaxton, Department of Urology, Feinberg School of Medicine, Northwestern University) were grown in RPMI-1640 medium containing 10% FBS and penicillin/streptomycin (100 units/mL and 100 μg/mL, respectively). The cells were cultured at 37° C. with 5% CO2 atmosphere in T75 flasks.
The biocompatibility of the MLCCs and cytotoxicity was tested using MTS (3-(4,5-dimethylthiazol-2-yl)-5-(3-carboxymethoxyphenyl)-2-(4-sulfophenyl)-2H-tetrazolium) assay. Briefly, J774 and HepG2 cells were plated at 1×10^5 cells per well in 24-well plate with 70-80% of confluency. […] To compare the effect of drug loaded MLCCs with native drug, Cells were also treated with different concentration of native drug (similar to amount of drug entrapped within the MLCCs as calculated from measurement via HPLC). […] MTS assay was used to quantify the cell viability according to the protocol provided by the manufacture (CellTiter 96 Aqueous One Solution Cell Proliferation Assay; Promega). The optical densities were recorded at 490 nm and 700 nm using BioTek Synergy™ 4 Hybrid Microplate Reader. The background absorbance at 700 nm was subtracted from absorbance at 490 nm. […] The IC50 values were calculated by nonlinear curve fit using dose response-inhibition equation with Graphpad Prism 5.0. […]

CC(=O)O[C@H]1C(=O)[C@@]2(C)[C@H]([C@H](OC(=O)c3ccccc3)[C@]3(O)C[C@H](OC(=O)[C@H](O)[C@@H](NC(=O)c4ccccc4)c4ccccc4)C(C)=C1C3(C)C)[C@]1(OC(C)=O)CO[C@@H]1C[C@@H]2O [PTX, paclitaxel]
IC50: 0.63 µg/mL

Source: patent publication US11510872B2, “Nanoparticle-lipid composite carriers and uses thereof” (Northwestern University, priority 2017, dated 2022)
